The text below walks through data of patent US20260263497A1, “METHOD OF TREATING SCHIZOPHRENIA AND COMPOSITION FOR USE THEREIN” (Academia Sinica, priority 2022, published 2026).

What all share (assay type): in vivo, mice (C57BL/6)
The test system of assay [1] is METH-induced hyperlocomotion in METH-naïve wild-type mice. The assay can be described thus: METH-induced hyperlocomotor activity (METH-induced behavioral sensitization, open field). As to conditions: for effect on METH-induced hyperlocomotion activity, total travelled distance: i.p. co-injection 0.3, 1, 3 mg/kg with METH 2 mg/kg, 60 minutes, FIG. 2. The procedure:
(§1) Animals: Male mice (C57BL/6; 2-3 months) were purchased from and maintained in the animal facility of National Taiwan University (Taipei, Taiwan) under standard condition with a 12-hr light/12-hr dark cycle. All animal experimental procedures were performed in accordance with the guidelines established by the Institutional Animal Care and Use Committee (IACUC) of the National Taiwan University and Institute of Biomedical Sciences (IBMS) at Academia Sinica (Taipei, Taiwan).
(§2) The locomotor activity: The locomotor activity was monitored and recorded using SMART 3.0 video tracking software (Panlab Harvard Apparatus, Barcelona, Spain) for 1 hour following the manufacture's protocol.
Methamphetamine (METH) is a dopamine enhancer that elevates synaptic dopamine in the brain and is frequently used to induce schizophrenia-like behaviors in mice.^6 Thus, METH-induced psychosis mice was used to evaluate the in vivo efficacy of JMF3464.
Male METH-naïve wild-type (WT) mice (3-6 months old) received intraperitoneal co-injections of JMF3464 (0.3, 1, or 3 mg/kg) and METH (2 mg/kg) immediately after establishing a 20-minute baseline for locomotor activity. The locomotor activity was recorded for 60 minutes after injection. A saline+vehicle group and a METH+vehicle group are used as control groups. In addition, under the same experimental conditions as JMF3464, the compound CGS21680 (A2A receptor agonist) with potential for treating schizophrenia was used as a comparison. The resulted data was expressed and analyzed as one-way ANOVA of total travelled distance (see FIG. 2) and two-way ANOVA of distance by 5-minute time bin (see FIGS. 3A and 3B) and.
Animals: Male mice (C57BL/6; 2-3 months) were purchased from and maintained in the animal facility of National Taiwan University (Taipei, Taiwan) under standard condition with a 12-hr light/12-hr dark cycle. All animal experimental procedures were performed in accordance with the guidelines established by the IACUC of the National Taiwan University and IBMS at Academia Sinica (Taipei, Taiwan).
Male METH-naïve wild-type (WT) mice (3-6 months old) received intraperitoneal co-injections of JMF1907 (1 mg/kg) and METH (2 mg/kg) immediately after establishing a 20-minute baseline for locomotor activity. The locomotor activity was recorded for 60 minutes after injection. In this study, a saline+vehicle (5% DMSO) group and a METH+vehicle (5% DMSO) group are used as control groups. In addition, the compound JMF3464 described above, and the compound S-(4-Nitrobenzyl)-6-thioinosine (NBTI), known as an inhibitor of equilibrative nucleoside transporter 1 (ENTi) transporter, are used as comparative examples with the same experimental conditions as JMF1907. The resulted data was expressed and analyzed as one-way ANOVA of total travelled distance (see FIG. 5) and two-way ANOVA of distance by 5-minute time bin (see FIG. 6).

For a further assay, the system named is METH-induced CPP in mice. The assay can be described thus: METH-induced conditioned place preference (CPP). The procedure:
as §1
The METH-induced conditioned place preference (CPP) task is further performed to examine the therapeutic effect of JMF3464 on METH-induced addiction.
The METH-induced CPP procedure is shown as follows. The conditioned place preference (CPP) paradigm is a standard preclinical behavioral model used to study the rewarding and aversive effects of drugs. The paradigm usually uses a two-compartment apparatus with each compartment displaying distinct contextual characteristics (e.g., wall colors/patterns and floor texture). The CPP model consisted of three phases: pre-conditioning (baseline), conditioning, and post-conditioning (i.e., CPP test). […] Lastly, one day after the conditioning sessions, mice underwent a CPP test where they were again given free access to all compartments for 15 minutes and the time spent in the METH-paired side was measured, which provided a measure of CPP expression.

Assay [2] concerns locomotor activity of drug-naïve WT mice. As to the kind of experiment: Effect of JMF3464 alone on locomotor activity. As to conditions: single i.p. injection 0.3, 0.5, 1, 3 mg/kg. On the procedure: as §1, §2
Male drug-naïve WT mice (3-6 months old) received a single dose JMF3464 injection (0.3, 0.5, 1, and 3 mg/kg, respectively) via intraperitoneal injection and the locomotor activity was recorded immediately after injection. A vehicle group is used as control group. The data were expressed and analyzed as one-way ANOVA of total travelled distance for 60 minutes (see FIG. 1A) and two-way ANOVA of distance by 5-minute time bin (see FIG. 1B).

In the case of `CCNC(=O)[C@H]1O[C@@H](n2cnc3c(N)nc(NCCc4ccc(CCC(=O)O)cc4)nc32)[C@H](O)[C@@H]1O` [CGS21680, reference compound], in assay [1], the “effect on METH-induced hyperlocomotion activity, total travelled distance” value is on record as “dose-dependently suppressed”.
For `OC[C@H]1O[C@@H](n2cnc3c(NCc4ccc(Br)s4)ncnc32)[C@H](O)[C@@H]1O` [JMF3464, N6-[(5-bromothien-2-yl)methyl]adenosine], the “inhibitory effect on METH-induced CPP” value is “neither 1 mg/kg nor 3 mg/kg of JMF3464 exerted inhibitory effect” in the assay on METH-induced CPP in mice (1 mg/kg i.p. 10 minutes before each METH conditioning session, FIG. 4A) and “neither 1 mg/kg nor 3 mg/kg of JMF3464 exerted inhibitory effect” in the assay with METH-induced CPP in mice (3 mg/kg i.p. 10 minutes before each METH conditioning session, FIG. 4B). For the same compound, the “effect on METH-induced locomotion activity, 5-minute time bins” value in assay [1] (3 mg/kg i.p. co-injection with METH 2 mg/kg, vs METH+vehicle, FIGS. 3A, 3B) is reported as “significantly lowered”. The “effect on METH-induced hyperlocomotion activity, total travelled distance” value in assay [1] is reported as “dose-dependently suppressed”. For the same compound, the “effect on METH-induced behavioral sensitization after repeated use” value in assay [1] (repeated use, no further conditions given) was “no effect”. For the same compound, the “effect on locomotor activity” value in assay [2] (60 minutes) is listed as “dose-dependent effect”. Further, the “reduction of total locomotor activity” value in assay [2] (total travelled distance 60 minutes, vs vehicle) is listed as ~ 20%.
As for `OC[C@H]1O[C@@H](n2cnc3c(NCCc4c[nH]c5ccccc45)ncnc32)C(O)C1O` (some centres unmarked) [JMF1907], the “improvement of METH-induced hyperactive behavior, five-minute intervals” value in assay [1] (1 mg/kg i.p. co-injection with METH 2 mg/kg, open field 60 minutes, FIG. 6) is given as “comparable to the control group”. The “effect on METH-induced hyperactive behavior, overall locomotion” value in assay [1] (1 mg/kg i.p. co-injection with METH 2 mg/kg, open field 60 minutes, vehicle 5% DMSO, compared to JMF3464 and NBTI, FIG. 5) was “significantly improves”.
As to `CN[C@@H](C)Cc1ccccc1` [METH, Methamphetamine], the “hyperlocomotion induced by METH” value in assay [1] (METH 2 mg/kg i.p. + vehicle vs saline+vehicle, total travelled distance 60 minutes) is on record as “approximately 200%”.
